Laboratory results: US4471131A, “Novel silyl esters of N-phosphonomethylglycine” (Monsanto Company, priority 1983, dated 1984)

Tests used:
Test in all cases: post-emergence herbicidal activity, greenhouse
Format in all cases: in vivo
Quackgrass = details: Table II, 11.2 kg/h, formulated immediately prior to treatment
Outline: (§1)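 Foliar spray, chamber, atomizer; plants 2–3 weeks old in topsoil pans; emulsifier ~0.4% by weight; rates as listed. Rating: injury relative to controls, ~2 and ~4 WAT.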

Wild Buckwheat = details: Table III, 2 WAT
Outline: (§2)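 Injury versus control pans was recorded at about 2 and 4 weeks post-treatment. Treatment was post-emergence: an atomizer spray holding roughly 0.4% by weight emulsifier and enough candidate chemical for the tabulated rates, applied to two-to-three-week-old plants raised in top-soil pans.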

Large Crabgrass = details: Table III, 2 WAT
Outline: as §2

Velvetleaf = system: Velvetleaf
Outline: as §2

Yellow Nutsedge = details: Table II, 11.2 kg/h, formulated immediately prior to treatment
Outline: as §1

Barnyardgrass = system: Barnyardgrass
Outline: as §2

Soybean = details: Table III, 2 WAT
Outline: as §2

Morningglory = system: Morningglory
Outline: as §2

Johnsongrass = details: Table II, 11.2 kg/h, formulated immediately prior to treatment
Outline: as §2

Pennsylvania Smartweed = system: Pennsylvania Smartweed
Outline: as §2

Panicum Spp = details: Table III, 2 WAT
Outline: as §2

Downy Brome = system: Downy Brome
Outline: as §2

Common Lambsquarters = system: Common Lambsquarters
Outline: as §2

Hemp Sesbania = details: Table III, 2 WAT
Outline: as §2

Sugar Beet = details: Table III, 2 WAT
Outline: as §2

Canada Thistle = details: Table II, 11.2 kg/h, formulated immediately prior to treatment
Outline: as §2

Cocklebur = system: Cocklebur
Outline: as §2

Rice = details: Table III, 2 WAT
Outline: as §2

[1] = Table II, 2 WAT, 11.2 kg/h, formulated immediately prior to treatment
[2] = Table II, 4 WAT, 11.2 kg/h, formulated immediately prior to treatment

CC(C)OC(=O)CNCP(=O)(O[Si](c1ccccc1)(c1ccccc1)C(C)(C)C)O[Si](c1ccccc1)(c1ccccc1)C(C)(C)C [Ex. 1]
2 (50-74% inhibition): Plant Response Index (T) (Large Crabgrass; 1.1 kg/h) | Plant Response Index (C) (Velvetleaf; Table III, 2 WAT, 5.6 kg/h) | Plant Response Index (G) (Yellow Nutsedge; 4 WAT) | Plant Response Index (K) (Barnyardgrass; [1]) | Plant Response Index (D) (Morningglory; [2]) | Plant Response Index (D) (Morningglory; Table III, 2 WAT, 5.6 kg/h) | Plant Response Index (I) (Johnsongrass; 4 WAT) | Plant Response Index (R) (Hemp Sesbania; 5.6 kg/h) | Plant Response Index (B) (Cocklebur; Table III, 2 WAT, 5.6 kg/h)
3 (75-99% inhibition): Plant Response Index (Q) (Wild Buckwheat; 5.6 kg/h) | Plant Response Index (K) (Barnyardgrass; [2]) | Plant Response Index (F) (Pennsylvania Smartweed; [1]) | Plant Response Index (F) (Pennsylvania Smartweed; [2]) | Plant Response Index (F) (Pennsylvania Smartweed; Table III, 2 WAT, 5.6 kg/h) | Plant Response Index (S) (Panicum Spp; 5.6 kg/h) | Plant Response Index (J) (Downy Brome; Table III, 2 WAT, 5.6 kg/h) | Plant Response Index (E) (Common Lambsquarters; Table III, 2 WAT, 5.6 kg/h) | Plant Response Index (M) (Sugar Beet; 5.6 kg/h) | Plant Response Index (O) (Rice; 5.6 kg/h)
1 (25-49% inhibition): Plant Response Index (H) (Quackgrass; 4 WAT) | Plant Response Index (C) (Velvetleaf; [2]) | Plant Response Index (G) (Yellow Nutsedge; 2 WAT) | Plant Response Index (K) (Barnyardgrass; Table III, 2 WAT, 1.1 kg/h) | Plant Response Index (L) (Soybean; 5.6 kg/h) | Plant Response Index (D) (Morningglory; [1]) | Plant Response Index (J) (Downy Brome; [1]) | Plant Response Index (J) (Downy Brome; [2]) | Plant Response Index (M) (Sugar Beet; 1.1 kg/h) | Plant Response Index (A) (Canada Thistle; 4 WAT) | Plant Response Index (B) (Cocklebur; [1]) | Plant Response Index (B) (Cocklebur; [2])
4 (100% inhibition): Plant Response Index (T) (Large Crabgrass; 5.6 kg/h) | Plant Response Index (K) (Barnyardgrass; Table III, 2 WAT, 5.6 kg/h)
0 (0-24% inhibition): Plant Response Index (H) (Quackgrass; 2 WAT) | Plant Response Index (Q) (Wild Buckwheat; 1.1 kg/h) | Plant Response Index (C) (Velvetleaf; [1]) | Plant Response Index (C) (Velvetleaf; Table III, 2 WAT, 1.1 kg/h) | Plant Response Index (L) (Soybean; 1.1 kg/h) | Plant Response Index (D) (Morningglory; Table III, 2 WAT, 1.1 kg/h) | Plant Response Index (I) (Johnsongrass; 2 WAT) | Plant Response Index (F) (Pennsylvania Smartweed; Table III, 2 WAT, 1.1 kg/h) | Plant Response Index (S) (Panicum Spp; 1.1 kg/h) | Plant Response Index (J) (Downy Brome; Table III, 2 WAT, 1.1 kg/h) | Plant Response Index (E) (Common Lambsquarters; [1]) | Plant Response Index (E) (Common Lambsquarters; [2]) | Plant Response Index (E) (Common Lambsquarters; Table III, 2 WAT, 1.1 kg/h) | Plant Response Index (R) (Hemp Sesbania; 1.1 kg/h) | Plant Response Index (A) (Canada Thistle; 2 WAT) | Plant Response Index (B) (Cocklebur; Table III, 2 WAT, 1.1 kg/h) | Plant Response Index (O) (Rice; 1.1 kg/h)
